Among the data in the supplement of paper PMC4862054 are drug sensitivity score values, retold here.

Holding throughout (experiment): drug sensitivity score (DSS), CellTox Green (DSS (AUC-based score)); higher = stronger drug effect (viability inhibition or cytotoxicity); extreme values may be limits of the assay
Holding throughout (settings): incubation time: 72 h

Assay [1] concerns HCC1143. The essentials: (§1)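 The drug sensitivity score was computed from the area under the fitted dose-response curve. Breast cancer cell lines in 20 µl suspension went into 384-well plates holding compound at 5 concentrations (10-fold steps over a 10,000-fold, compound-specific range) for 72 h of incubation. CellTox Green fluorescence (485/520 nm) was read before CellTiter-Glo luminescence, the latter after 10 min at room temperature, and each plate was normalised to 0.1 % DMSO and a positive kill control.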

Assay [2] has as its system MFM-223. The essentials:
as §1

For assay [3], the system named is CAL-51. The essentials:
as §1

For assay [4], the system named is DU-4475. The essentials: as §1
For assay [5], the system named is MCF-10A. The essentials: as §1
In assay [6] the test system is BT-474. The essentials: as §1
Assay [7] has as its system MDA-MB-453. The essentials: as §1
In assay [8] the test system is HCC1599. The essentials:
as §1

In assay [9] the test system is CAL-120. The essentials: as §1
In assay [10] the test system is HDQ-P1. The essentials:
as §1

In the case of `CN1CCC(COc2cnc(-c3cccc(Cn4nc(-c5cccc(C#N)c5)ccc4=O)c3)nc2)CC1`, the drug sensitivity score in assay [1], in assay [2], in [3], in assay [4], in assay [5] and in [6] was 0 each time. Also, the drug sensitivity score in assay [7], in [8], in [9] and in assay [10] was 0 throughout.

Regarding `CN(C)C/C=C/C(=O)Nc1cc2c(Nc3ccc(F)c(Cl)c3)ncnc2cc1O[C@H]1CCOC1` [Afatinib], the drug sensitivity score in assay [1] amounted to 1.18; in [2], 0; in assay [3] it was 0; in assay [4], 0; in [5], 0; in assay [6], 3.66. Further, the drug sensitivity score in [7], in assay [8], in assay [9] and in assay [10] was 0 throughout.

In the case of `COc1cc(Nc2ncc3c(n2)-c2ccc(Cl)cc2C(c2c(F)cccc2OC)=NC3)ccc1C(=O)O` [Alisertib], the drug sensitivity score in assay [1] amounted to 0; in assay [2], 0; in [3], 27.9; in assay [4], 0; in assay [5] it was 3.47; in [6] it was 2.03. The drug sensitivity score in assay [7], in [8], in assay [9] and in assay [10] was 0 each time.

As to `CN1CC[C@H](c2c(O)cc(O)c3c(=O)cc(-c4ccccc4Cl)oc23)[C@H](O)C1` [Alvocidib], the drug sensitivity score in [1] turned out to be 0; in [2], 7.92; in assay [3] it was 4.44; in assay [4], 0; in assay [5], 16.1; in [6], 0.211. Further, the drug sensitivity score in [7] was found to be 0; in assay [8], 0; in assay [9], 1.81; in assay [10], 7.43.

Consider `Nc1nc(Cl)nc2c1ncn2[C@H]1C[C@H](O)[C@@H](CO)O1` [Cladribine], for which the drug sensitivity score was determined as 1.86 in assay [1]; 3.32 in [2]; 0 in assay [3]; 0 in assay [4]; 0 in assay [5]; 0 in assay [6]. Moreover, the drug sensitivity score in assay [7], in assay [8], in assay [9] and in [10] was 0 each time.

Turning to `Nc1ccn([C@@H]2O[C@H](CO)[C@@H](O)[C@@H]2O)c(=O)n1` [Cytarabine], the drug sensitivity score amounted to 0 in assay [1]; 0 in assay [2]; 13.1 in [3]; 0 in assay [4]; 0.944 in [5]; 0 in assay [6]. The drug sensitivity score in assay [7], in [8], in assay [9] and in [10] was 0 in each case.

As to `Cc1c2oc3c(C)ccc(C(=O)N[C@@H]4C(=O)N[C@H](C(C)C)C(=O)N5CCC[C@H]5C(=O)N(C)CC(=O)N(C)[C@@H](C(C)C)C(=O)O[C@@H]4C)c3nc-2c(C(=O)N[C@@H]2C(=O)N[C@H](C(C)C)C(=O)N3CCC[C@H]3C(=O)N(C)CC(=O)N(C)[C@@H](C(C)C)C(=O)O[C@@H]2C)c(N)c1=O` [Dactinomycin], the drug sensitivity score in assay [1] was 1.67; in assay [2] it was 4.62; in assay [3] it was 22.9; in assay [4] it was 0; in [5] it was 15.4; in assay [6], 2.02. In addition, the drug sensitivity score in [7], in [8], in assay [9] and in [10] was 0 in each case.

Take `COc1cccc2c1C(=O)c1c(O)c3c(c(O)c1C2=O)C[C@@](O)(C(=O)CO)C[C@@H]3O[C@H]1C[C@H](N)[C@H](O)[C@H](C)O1` [Doxorubicin]: the drug sensitivity score in assay [1] was 0; in assay [2], 1.83; in assay [3], 10.9; in assay [4], 0; in [5], 0; in [6], 0. The drug sensitivity score in [7], in assay [8], in [9] and in assay [10] was 0 in each case.

For `Cc1ccc(F)c(NC(=O)Nc2ccc(-c3cccc4[nH]nc(N)c34)cc2)c1` [Linifanib], the drug sensitivity score in assay [1], in assay [2], in [3], in [4], in [5] and in assay [6] was 0 each time. Besides, the drug sensitivity score in assay [7], in [8], in [9] and in [10] was 0 each time.

For the compound `CC(=O)O[C@]1(C(C)=O)CC[C@H]2[C@@H]3C=C(C)C4=CC(=O)CC[C@]4(C)[C@H]3CC[C@@]21C` [Megestrol acetate], the drug sensitivity score in assay [1], in assay [2], in assay [3], in assay [4], in [5] and in assay [6] was 0 each time. The drug sensitivity score in assay [7] is 0; in assay [8], 0; in [9] it was 0; in assay [10], 1.18.

For `S=c1[nH]cnc2nc[nH]c12` [Mercaptopurine], the drug sensitivity score in [1], in assay [2], in assay [3], in assay [4], in assay [5] and in assay [6] was 0 in each case. Also, the drug sensitivity score in assay [7], in [8], in assay [9] and in assay [10] was 0 in each case.

For the compound `Clc1ccc(C(c2ccccc2Cl)C(Cl)Cl)cc1` (stereo not given) [Mitotane], the drug sensitivity score in assay [1] was found to be 2.11; in assay [2], 0; in [3] it was 0; in [4] it was 0; in assay [5], 0; in assay [6], 0. For the same compound, the drug sensitivity score in assay [7], in assay [8], in assay [9] and in [10] was 0 each time.
